Results on 18 compounds are retold here after patent US7705156B2, “Heteroaryl (substituted)alkyl N-substituted sulfoximines as insecticides” (Dow AgroSciences LLC, priority 2006, dated 2010).

Read-outs that look alike come from different tables or passages of the source.

Assay [1] concerns Cotton Aphid (Aphis gossvpii). The assay can be described thus: Insecticidal test for cotton aphid in foliar spray assay. It is filed as in vivo. To be noted: for pest or weed control at 50 ppm / pest or weed control at 200 ppm: 72 h; for pest or weed control at 50 ppm: read-out: CA 50: % control at 50 ppm against cotton aphid in foliar spray tests; for pest or weed control at 200 ppm: read-out: CA 200: % control at 200 ppm against cotton aphid in foliar spray tests; for % Control at ppm against cotton aphid on squash, foliar spray, 0.781 ppm / % Control at ppm against cotton aphid on squash, foliar spray, 3.125 ppm / % Control at ppm against cotton aphid on squash, foliar spray, 12.5 ppm / % Control at ppm against cotton aphid on squash, foliar spray, 50 ppm: rundown assay. The method, then: Insecticidal Test for Cotton Aphid (Aphis gossvpii) in Foliar Spray Assay
Squash with fully expanded cotyledon leaves were trimmed to one cotyledon per plant and infested with cotton aphid (wingless adult and nymph) 1 day prior to chemical application. Each plant was examined before chemical application to ensure proper infestation (ca. 30-70 aphids per plant). Compounds (2 mg) were dissolved in 2 ml of acetone:methanol (1:1) solvent, forming stock solutions of 1000 ppm. The stock solutions were diluted 5× with 0.025% Tween 20 in H2O to obtain the highest test solution at 200 ppm. Lower test concentrations (50, 12.5, 3.13 and 0.78 ppm) were prepared by making sequential 4× dilutions from the 200 ppm solution with a diluent consisting 80 parts of 0.025% Tween 20 in H2O and 20 parts of acetone:methanol (1:1). A hand-held Devilbiss sprayer was used to apply the spray solutions until runoff to both sides of the squash cotyledon leaves. Four plants (4 replications) were used for each concentration of each compound. Reference plants (solvent check) were sprayed with the diluent only. Treated plants were held in a holding room for 3 days at approximately 23° C. and 40% RH before the number of live aphids on each plant was recorded. Insecticidal activity was measured by Corrected % Control using Abbott's correction formula and the values for the lower test concentrations are presented in Table 2: Corrected % Control=100*(X−Y)/X • where X=No. of live aphids on solvent check plants • Y=No. of live aphids on treated plants Insecticidal Test for Green Peach Aphid (Myzus persicae) in Foliar Spray Assay

The subject of assay [2] is Green Peach Aphid (Myzus persicae). The assay can be described thus: Insecticidal test for green peach aphid in foliar spray assay. The class given is in vivo. The settings on record: 72 h, foliar spray on cabbage seedlings, 3 days, Abbott-corrected; for pest or weed control at 200 ppm: read-out: GPA 200: % control at 200 ppm against green peach aphid in foliar spray tests; for pest or weed control at 50 ppm: read-out: GPA 50: % control at 50 ppm against green peach aphid in foliar spray tests. The method, then: Cabbage seedlings grown in 3-inch pots, with 2-3 small (3-5 cm) true leaves, were used as test substrate. The seedlings were infested with 20-50 green peach aphids (wingless adult and nymph) 2-3 days prior to chemical application. Four seedlings were used for each treatment. Compounds (2 mg) were dissolved in 2 ml of acetone:methanol (1:1) solvent, forming stock solutions of 1000 ppm. The stock solutions were diluted 5× with 0.025% Tween 20 in H2O to obtain the highest test solution at 200 ppm. A lower test concentration of 50 ppm was prepared by making a 4× dilution from the 200 ppm solution with a diluent consisting 80 parts of 0.025% Tween 20 in H2O and 20 parts of acetone: methanol (1:1). A hand-held Devilbiss sprayer was used for spraying a solution to both sides of cabbage leaves until runoff. Reference plants (solvent check) were sprayed with the diluent only. Treated plants were held in a holding room for three days at approximately 23° C. and 40% RH prior to grading. Evaluation was conducted by counting the number of live aphids per plant under a microscope. Insecticidal activity was measured by using Abbott's correction formula: Corrected % Control=100*(X−Y)/X • where X=No. of live aphids on solvent check plants • Y=No. of live aphids on treated plants The Corrected % Control values from the above assays are given in Table 2

Where [3] appears, read: 50 ppm, foliar spray on squash, 3 days, Abbott-corrected.
Setting [4] is: 200 ppm, foliar spray on squash, 3 days, Abbott-corrected.

As to `CS(=O)(=NC#N)C(Cc1cscn1)c1ccc(Cl)nc1` (stereo not shown) [Compound 1, [1-(6-chloropyridin-3-yl)-2-(1,3-thiazol-4-yl)ethyl](methyl)oxido-λ^4-sulfanylidenecyanamide], in assay [1] (foliar), the pest or weed control at 50 ppm lay in the range of 90 to 100% and the pest or weed control at 200 ppm fell in the range of 90 to 100%.

For the compound `CS(=O)(=NC#N)C(CC1CC1)c1ccc(C(F)(F)F)nc1` (stereo not shown) [Compound 2, {1-[6-(trifluoromethyl)pyridin-3-yl]-2-(cyclopropyl)ethyl}(methyl)oxido-λ^4-sulfanylidenecyanamide], in assay [1], the “% Control at ppm against cotton aphid on squash, foliar spray, 0.781 ppm” value (shortened to “% Control at ppm … 0.781 ppm”) was “C (70-79)”; the “% Control at ppm against cotton aphid on squash, foliar spray, 3.125 ppm” value (shortened to “% Control at ppm … 3.125 ppm”) was “A (90-100)”; the “% Control at ppm against cotton aphid on squash, foliar spray, 12.5 ppm” value (shortened to “% Control at ppm against cotton aphid … 12.5 ppm”) is “A (90-100)”. The “% Control at ppm against cotton aphid on squash, foliar spray, 50 ppm” value (“% Control at ppm against cotton aphid … 50 ppm” below) in assay [1] (50 ppm) was “A (90-100)”. For the same compound, in assay [1] (setting [3]), the pest or weed control at 50 ppm is 90 to 100%. The pest or weed control at 200 ppm in assay [1] (setting [4]) was in the range of 90 to 100%. For the same compound, the pest or weed control at 200 ppm in assay [2] was 70 to 79%.

In the case of `CS(=O)(=NC#N)[C@@H]1CCC[C@@H]1c1ccc(Cl)nc1` (stereo partly drawn) [Compound 3, cis-[2-(6-chloropyridin-3-yl)cyclopentyl](methyl)-oxido-λ^4-sulfanylidenecyanamide], the pest or weed control at 200 ppm in assay [1] (setting [4]) and in assay [2] was 60 to 69% in each case.

Regarding `CS(=O)(=NC#N)C1CCC(c2ccc(Cl)nc2)C1` (stereo not drawn) [Compound 4, cis and trans-[3-(6-chloropyridin-3-yl)cyclopentyl]-(methyl)oxido-λ^4-sulfanylidenecyanamide], the pest or weed control at 50 ppm in assay [1] (setting [3]) lay within 70 to 79%. Moreover, the pest or weed control at 200 ppm lay in the range of 90 to 100% in assay [1] (setting [4]) and 80 to 89% in assay [2].

`N#CN=S1(=O)CCC(c2ccc(C(F)(F)F)nc2)C1` (stereo not shown) [Compound 5, 1-oxido-3-[6-(trifluoromethyl)pyridin-3-yl]tetrahydro-1H-1λ^4-thien-1-ylidenecyanamide]: in assay [1], the “% Control at ppm … 0.781 ppm” value is “F (Less than 50)”; the “% Control at ppm … 3.125 ppm” value is given as “C (70-79)”; the “% Control at ppm against cotton aphid … 12.5 ppm” value is listed as “A (90-100)”. The “% Control at ppm against cotton aphid … 50 ppm” value in assay [1] (50 ppm) is “A (90-100)”. The pest or weed control at 50 ppm in assay [1] (setting [3]) lay within 90 to 100%. Moreover, the pest or weed control at 200 ppm in assay [1] (setting [4]) was 90 to 100%. Further, in assay [2], the pest or weed control at 50 ppm fell in the range of 50 to 59% and the pest or weed control at 200 ppm was 80 to 89%.

Take `CS(=O)(=NC#N)C(Cc1ccc(Cl)nc1)c1ccc(Cl)nc1` (stereo not shown) [Compound 6]: the pest or weed control at 50 ppm in assay [1] (setting [3]) was in the range of 90 to 100%. Moreover, the pest or weed control at 200 ppm in assay [1] (setting [4]) was 90 to 100%.

As for `CS(=O)(=NC#N)C(Cc1ccc(Cl)cc1)c1ccc(Cl)nc1` (stereo not shown) [Compound 7], the pest or weed control at 50 ppm in assay [1] (setting [3]) fell in the range of 90 to 100%. In assay [1] (setting [4]), the pest or weed control at 200 ppm was 90 to 100%.

As for `COc1ccc(CC(c2ccc(Cl)nc2)S(C)(=O)=NC#N)cc1` (stereo not shown) [Compound 8], the pest or weed control at 50 ppm in assay [1] (setting [3]) was 90 to 100%. Further, the pest or weed control at 200 ppm in assay [1] (setting [4]) was in the range of 90 to 100%.

For the compound `CC(C)C(c1ccc(Cl)nc1)S(C)(=O)=NC#N` (stereo not shown) [Compound 9], the pest or weed control at 50 ppm in assay [1] (setting [3]) lay in the range of 90 to 100%. Also, the pest or weed control at 200 ppm in assay [1] (setting [4]) is 90 to 100%.

For the compound `COCCC(c1ccc(Cl)nc1)S(C)(=O)=NC#N` (stereo not shown) [Compound 10], in assay [1] (setting [3]), the pest or weed control at 50 ppm is 90 to 100%. Further, the pest or weed control at 200 ppm in assay [1] (setting [4]) is 90 to 100%; in assay [2], 60 to 69%.

For `COCC(COC)(c1ccc(Cl)nc1)S(C)(=O)=NC#N` (stereo not shown) [Compound 11], the pest or weed control at 50 ppm in assay [1] (setting [3]) lay in the range of 90 to 100%. Besides, the pest or weed control at 200 ppm in assay [1] (setting [4]) fell in the range of 90 to 100%.

Turning to `CS(=O)(=NC#N)C(CCF)c1ccc(Cl)nc1` (stereo not shown) [Compound 12], in assay [1], the “% Control at ppm … 0.781 ppm” value is listed as “A (90-100)”; the “% Control at ppm … 3.125 ppm” value is “A (90-100)”; the “% Control at ppm against cotton aphid … 12.5 ppm” value is on record as “A (90-100)”. In addition, the “% Control at ppm against cotton aphid … 50 ppm” value in assay [1] (50 ppm) is recorded as “A (90-100)”. In addition, in assay [1] (setting [3]), the pest or weed control at 50 ppm was 90 to 100%. Moreover, the pest or weed control at 200 ppm in assay [1] (setting [4]) was in the range of 90 to 100%. In assay [2], the pest or weed control at 50 ppm lay within 90 to 100% and the pest or weed control at 200 ppm was in the range of 90 to 100%.

As for `CS(=O)(=NC#N)C(CC1CC1)c1ccc(Cl)nc1` (stereo not shown) [Compound 13], the pest or weed control at 50 ppm in assay [1] (setting [3]) lay within 90 to 100%. Also, in assay [1] (setting [4]), the pest or weed control at 200 ppm was in the range of 90 to 100%.

As for `C#CCC(c1ccc(Cl)nc1)S(C)(=O)=NC#N` (stereo not shown) [Compound 14], in assay [1] (setting [3]), the pest or weed control at 50 ppm lay in the range of 90 to 100%. Further, the pest or weed control at 200 ppm in assay [1] (setting [4]) lay in the range of 90 to 100%.

In the case of `CS(=O)(=NC#N)C(C/C=C/Cl)c1ccc(Cl)nc1` (stereo not shown) [Compound 15], the pest or weed control at 50 ppm in assay [1] (setting [3]) is 90 to 100%. For the same compound, the pest or weed control at 200 ppm in assay [1] (setting [4]) was in the range of 90 to 100%.

Regarding `C#CCC(c1ccc(C(F)(F)F)nc1)S(C)(=O)=NC#N` (stereo not shown) [Compound 16], in assay [1], the “% Control at ppm … 0.781 ppm” value is recorded as “B (80-89)”; the “% Control at ppm … 3.125 ppm” value was “A (90-100)”; the “% Control at ppm against cotton aphid … 12.5 ppm” value is reported as “A (90-100)”. Further, the “% Control at ppm against cotton aphid … 50 ppm” value in assay [1] (50 ppm) is recorded as “A (90-100)”. For the same compound, the pest or weed control at 50 ppm in assay [1] (setting [3]) was 90 to 100%. Moreover, the pest or weed control at 200 ppm in assay [1] (setting [4]) was in the range of 90 to 100%. In assay [2], the pest or weed control at 50 ppm lay in the range of 80 to 89% and the pest or weed control at 200 ppm was 90 to 100%.

Turning to `CS(=O)(=NC#N)C(C/C=C/Cl)c1ccc(C(F)(F)F)nc1` (stereo not shown) [Compound 17], in assay [1], the “% Control at ppm … 0.781 ppm” value was “D (60-69)”; the “% Control at ppm … 3.125 ppm” value is “B (80-89)”; the “% Control at ppm against cotton aphid … 12.5 ppm” value is given as “A (90-100)”. In addition, the “% Control at ppm against cotton aphid … 50 ppm” value in assay [1] (50 ppm) was “A (90-100)”. Besides, the pest or weed control at 50 ppm in assay [1] (setting [3]) was 90 to 100%. For the same compound, the pest or weed control at 200 ppm in assay [1] (setting [4]) lay in the range of 90 to 100%. Besides, in assay [2], the pest or weed control at 50 ppm lay within 70 to 79% and the pest or weed control at 200 ppm was 90 to 100%.

For `CC(C)C(c1ccc(C(F)(F)F)nc1)S(C)(=O)=NC#N` (stereo not shown) [Compound 18], in assay [1], the “% Control at ppm … 0.781 ppm” value is reported as “A (90-100)”; the “% Control at ppm … 3.125 ppm” value is given as “A (90-100)”; the “% Control at ppm against cotton aphid … 12.5 ppm” value is listed as “A (90-100)”. Moreover, in assay [1] (50 ppm), the “% Control at ppm against cotton aphid … 50 ppm” value is “A (90-100)”. In addition, the pest or weed control at 50 ppm in assay [1] (setting [3]) fell in the range of 90 to 100%. The pest or weed control at 200 ppm in assay [1] (setting [4]) was 90 to 100%. In assay [2], the pest or weed control at 50 ppm was 60 to 69% and the pest or weed control at 200 ppm lay in the range of 90 to 100%.
